In ChEMBL document CHEMBL3091280, “Synthesis and Cytotoxicity of Semisynthetic Withalongolide A Analogues” (ACS Med Chem Lett, 2013):

Tests used:
MDA-MB-231 = assay: Cytotoxicity against human MDA-MB-231 cells after 72 hrs by MTS assay; type: functional, cell-based; conditions: MDA-MB-231, 72 h
MRC5 = assay: Cytotoxicity against human MRC5 cells after 72 hrs by MTS assay; type: cell-based; conditions: MRC5, 72 h
[1] = Cytotoxicity against human JMAR cells after 72 hrs by MTS assay; type: functional, cell-based
SK-MEL-28 = assay: Cytotoxicity against human SK-MEL-28 cells after 72 hrs by MTS assay; type: functional, cell-based; conditions: SK-MEL-28, 72 h
[2] = Cytotoxicity against human DRO 81-1 cells after 72 hrs by MTS assay; type: functional, cell-based

Structure (SMILES) | IC50 (MDA-MB-231) | IC50 (MRC5) | IC50 [1] | IC50 (SK-MEL-28) | IC50 [2]
CC(=O)OCC1=C(C)C[C@H]([C@@H](C)[C@H]2CC[C@H]3[C@@H]4C[C@H]5O[C@]56[C@@H](O)C=CC(=O)[C@]6(CO)[C@H]4CC[C@]23C)OC1=O | 415 nM | 2300 nM | 1220 nM | 705 nM | 1050 nM
CC(=O)O[C@H]1C=CC(=O)[C@]2(CO)[C@H]3CC[C@]4(C)[C@@H]([C@H](C)[C@H]5CC(C)=C(CO)C(=O)O5)CC[C@H]4[C@@H]3C[C@H]3O[C@]132 | 890 nM | 1200 nM | 2480 nM | 1220 nM | 570 nM
CC(=O)OCC1=C(C)C[C@H]([C@@H](C)[C@H]2CC[C@H]3[C@@H]4C[C@H]5O[C@]56CC=CC(=O)[C@]6(COC(C)=O)[C@H]4CC[C@]23C)OC1=O | 790 nM | 2050 nM | 1220 nM | 710 nM | 1100 nM
CC1=C(CO)C(=O)O[C@@H]([C@@H](C)[C@H]2CC[C@H]3[C@@H]4C[C@H]5O[C@]56[C@@H](O)C=C(I)C(=O)[C@]6(CO)[C@H]4CC[C@]23C)C1 | > 10000 nM | 9100 nM | > 10000 nM | 9110 nM | 5250 nM
CC(=O)OCC1=C(C)C[C@H]([C@@H](C)[C@H]2CC[C@H]3[C@@H]4C[C@H]5O[C@]56[C@@H](OC(C)=O)C=CC(=O)[C@]6(CO)[C@H]4CC[C@]23C)OC1=O | 635 nM | 295 nM | 600 nM | 170 nM | 58 nM
CC1=C(CO)C(=O)O[C@@H]([C@@H](C)[C@H]2CC[C@H]3[C@@H]4C[C@H]5O[C@]56[C@@H](OC(=O)N(C)C)C=CC(=O)[C@]6(CO)[C@H]4CC[C@]23C)C1 | 610 nM | 1750 nM | 2090 nM | 515 nM | 585 nM
CC(=O)OCC1=C(C)C[C@H]([C@@H](C)[C@H]2CC[C@H]3[C@@H]4C[C@H]5O[C@]56[C@@H](OC(C)=O)C=CC(=O)[C@]6(COC(C)=O)[C@H]4CC[C@]23C)OC1=O | 655 nM | 310 nM | 655 nM | 110 nM | 110 nM
CC(=O)OCC1=C(C)C[C@H]([C@@H](C)[C@H]2CC[C@H]3[C@@H]4C[C@H]5O[C@]56[C@@H](OC(=O)N(C)C)C=CC(=O)[C@]6(COC(C)=O)[C@H]4CC[C@]23C)OC1=O | 175 nM | 510 nM | 970 nM | 205 nM | 86.5 nM
CC(=O)OCC1=C(C)C[C@H]([C@@H](C)[C@H]2CC[C@H]3[C@@H]4C[C@H]5O[C@]56[C@@H](OC(C)=O)C=C(I)C(=O)[C@]6(COC(C)=O)[C@H]4CC[C@]23C)OC1=O | 210 nM | 475 nM | 830 nM | 275 nM | 115 nM
CC1=C(CO)C(=O)O[C@@H]([C@@H](C)[C@H]2CC[C@H]3[C@@H]4C[C@H]5O[C@]56[C@@H](OC(=O)c5ccc(Cl)cc5)C=CC(=O)[C@]6(CO)[C@H]4CC[C@]23C)C1 | 1400 nM | 2550 nM | 1720 nM | 2250 nM | 1850 nM
C=CCCC(=O)OC[C@]12C(=O)C=C[C@H](OC(=O)CCC=C)[C@]13O[C@@H]3C[C@H]1[C@@H]3CC[C@H]([C@H](C)[C@H]4CC(C)=C(COC(C)=O)C(=O)O4)[C@@]3(C)CC[C@@H]12 | 625 nM | 865 nM | 1440 nM | 470 nM | 580 nM
CC(=O)OCC1=C(C)C[C@H]([C@@H](C)[C@H]2CC[C@H]3[C@@H]4C[C@H]5O[C@]56[C@@H]5C=CC(=O)[C@]6(COC(=O)CC/C=C/CCC(=O)O5)[C@H]4CC[C@]23C)OC1=O | 245 nM | 360 nM | 965 nM | 205 nM | 225 nM
CC1=C(COC(=O)c2ccc(Cl)cc2)C(=O)O[C@@H]([C@@H](C)[C@H]2CC[C@H]3[C@@H]4C[C@H]5O[C@]56[C@@H](O)C=CC(=O)[C@]6(COC(=O)c5ccc(Cl)cc5)[C@H]4CC[C@]23C)C1 | 2620 nM | 2350 nM | 4640 nM | 1110 nM | 1900 nM
CCC(=O)OCC1=C(C)C[C@H]([C@@H](C)[C@H]2CC[C@H]3[C@@H]4C[C@H]5O[C@]56[C@@H](OC(=O)CC)C=CC(=O)[C@]6(COC(=O)CC)[C@H]4CC[C@]23C)OC1=O | 365 nM | 615 nM | 1000 nM | 285 nM | 130 nM
CC1=C(CO)C(=O)O[C@@H]([C@@H](C)[C@H]2CC[C@H]3[C@@H]4C[C@H]5O[C@]56[C@@H](O)C=CC(=O)[C@]6(C)[C@H]4CC[C@]23C)C1 [WITHAFERIN A] | 540 nM | 2700 nM | 1000 nM | 1000 nM | 780 nM
CC1=C(COC(=O)c2ccc(Cl)cc2)C(=O)O[C@@H]([C@@H](C)[C@H]2CC[C@H]3[C@@H]4C[C@H]5O[C@]56[C@@H](OC(=O)c5ccc(Cl)cc5)C=CC(=O)[C@]6(CO)[C@H]4CC[C@]23C)C1 | ≥ 10000 nM | ≥ 10000 nM | ≥ 10000 nM | ≥ 10000 nM | ≥ 10000 nM
CC(=O)OC[C@]12C(=O)C=C[C@H](OC(=O)c3ccc(Cl)cc3)[C@]13O[C@@H]3C[C@H]1[C@@H]3CC[C@H]([C@H](C)[C@H]4CC(C)=C(COC(=O)c5ccc(Cl)cc5)C(=O)O4)[C@@]3(C)CC[C@@H]12 | ≥ 10000 nM | ≥ 10000 nM | ≥ 10000 nM | ≥ 10000 nM | ≥ 10000 nM
CC(=O)OC[C@]12C(=O)C=C[C@H](O)[C@]13O[C@@H]3C[C@H]1[C@@H]3CC[C@H]([C@H](C)[C@H]4CC(C)=C(CO)C(=O)O4)[C@@]3(C)CC[C@@H]12 | 1150 nM | 1800 nM | 3060 nM | 1230 nM | 780 nM
CC1=C(COC(=O)c2ccc(Cl)cc2)C(=O)O[C@@H]([C@@H](C)[C@H]2CC[C@H]3[C@@H]4C[C@H]5O[C@]56[C@@H](OC(=O)c5ccc(Cl)cc5)C=CC(=O)[C@]6(COC(=O)c5ccc(Cl)cc5)[C@H]4CC[C@]23C)C1 | ≥ 10000 nM | ≥ 10000 nM | ≥ 10000 nM | ≥ 10000 nM | ≥ 10000 nM
CC(=O)OCC1=C(C)C[C@H]([C@@H](C)[C@H]2CC[C@H]3[C@@H]4C[C@@H](O)C5=CC=CC(=O)[C@]5(COC(C)=O)[C@H]4CC[C@]23C)OC1=O | ≥ 10000 nM | ≥ 10000 nM | ≥ 10000 nM | ≥ 10000 nM | ≥ 10000 nM
CC1=C(CO)C(=O)O[C@@H]([C@@H](C)[C@H]2CC[C@H]3[C@@H]4C[C@H]5O[C@]56[C@@H](O)C=CC(=O)[C@]6(CO)[C@H]4CC[C@]23C)C1 | 1500 nM | 5300 nM | 3100 nM | 1600 nM | 1700 nM
CC(=O)OCC1=C(C)C[C@H]([C@@H](C)[C@H]2CC[C@H]3[C@@H]4C[C@@H](O)[C@@]5(Cl)CC=CC(=O)[C@]5(COC(C)=O)[C@H]4CC[C@]23C)OC1=O | 800 nM | 3150 nM | 2160 nM | 1170 nM | 1350 nM
CC(=O)OCC1=C(C)C[C@H]([C@@H](C)[C@H]2CC[C@H]3[C@@H]4C[C@@H](OC(C)=O)C5=CC=CC(=O)[C@]5(COC(C)=O)[C@H]4CC[C@]23C)OC1=O | ≥ 10000 nM | ≥ 10000 nM | ≥ 10000 nM | ≥ 10000 nM | ≥ 10000 nM
CC(=O)OCC1=C(C)C[C@H]([C@@H](C)[C@H]2CC[C@H]3[C@@H]4C[C@H]5O[C@]56[C@@H](O)C=CC(=O)[C@]6(COC(C)=O)[C@H]4CC[C@]23C)OC1=O | 205 nM | 490 nM | 515 nM | 230 nM | 155 nM
